Assay results reported in patent US10189812B2, “Bi-benzyl isoquinoline derivative, preparation method and use thereof in hepatopathy treatment and prevention” (THE KEY LABORATORY OF CHEMISTRY FOR NATURAL PRODUCTS OF …, priority 2014, dated 2019).
Read-outs that look alike come from different tables or passages of the source.

Assays:
Format in all cases: cell-based
BEL-7402 cell = experiment: Sulforhodamine B (SRB) growth inhibition of human liver cancer cell strain BEL-7402; settings: for inhibition at 10 µM: Homo sapiens, read-out: BEL-7402/ Inhibition (%)
Description: 1. human liver cancer cell strains BEL-7402 model discrimination
Tested methods: Sulforhodamine B (SRB)
According to growth rate of tumor cells, the adherent cells in logarithmic growth phase was implanted into a 96-well cell culture plate by 200 μL per well. Adhering for 24 h before dosing, each concentration was set with 3 holes. The corresponding concentration of saline as for control group and withering holes without cells. The tumor cells were cultured for 72 h under 5% CO2 at 37° C.
The culture plate was takene out, 50 uL of trichloro acetic acid TCA fixed cells which were diluted to 50% (m/v) were added to each well. The plate was kept for 1 h at 4° C. If suspension cells are cultured, 50 uL cold TCA (80%) was added to each well. Final concentration of TCA is 16%, standed for 5 min, kept in a refrigerator for 1 h at 4° C.
Stationary liquid was sucked out, washed by 5 times with distilled water, dried in the air.
After drying in the air, 100 μL of SRB solution was added in each well, kept for 10-30 min at the room temperature.
The supernatant was sucked out, washed by 5 times with acetic acid (1%), dried in the air.
150 μL Tris solution was added in each well, vibrated for 5 min on the tablet oscillator.
OD values were measured with ELISA at 515 nm, zeroed with blank control.
Growth inhibition ratio of tumor cells was calculated according to the following formula: Inhibition=[(OD515control hole−OD515dosing hole)/OD515control hole]×100%.
According to inhibition ratio of different concentration, IC50 was determined with Logit method. Above experiment was repeated 2-3 times to give average IC50 values as for final index.
Model principle: SRB is a kind of protein binding dye which can be binded with basic amino acid in biological macromolecules. OD values in specific wavelength range have linear relationship with cell number. According to OD values of binding substance, action effect of sample on tumor cell is defected.

[1] = test system: PLC/PRF/5 liver cancer cell strains; experiment: Tetrazolium salt reduction method (MTT) on human liver cancer cell strain PLC/PRF/5
Description: 2. human liver cancer cell strains PLC/PRF/5 model discrimination
(§1) Tested methods: Tetrazolium salt reduction method (MTT)
(1) Inoculating cells: A uniform cell suspension was prepared with culture solution containing fetal calf serum (10%). The suspension was implanted into a 96-well cell culture disc by 1000-10000 cells/200 μL per well.
(§2) (2) Culturing cells: The cells were cultured for 3-5 days according to known methods in the art (culturing time depending on experiment objective and requirement).
(§3) (3) Colour response: The cells were cultured for 3-5 days, 20 μl of MTT solution (5 mg/mL, PBS <pH=7.4>) was added in each well, incubated for 4 h. Culture was terminated and the culture suspension was carefully sucked out. As for suspension cells, they need be centrifuged before suspension solution in wells was sucked out. 150 μL of DMSO was added in each well, vibrated for 10 min. The crystal was fully dissolved.
(§4) (4) Colorimetry: Light absorbance values in each well were measured by ELISA at 490 nm and the results were recorded. The cell growth curve was drawn with time as the abscissa and absorbance values as vertical coordinates.
Model principle: Dehydrogenase related to NADP exists in mitochondria of living cell. Yellow MIT is reduced to insoluble blue-purple Formanzan. Dehydrogenase is disappeared in dead cell and MIT can not be reduced. According to reduction extent, action effect of sample on tumor cell is defected.

[2] = test system: MHCC97L liver cancer cell strains; experiment: Tetrazolium salt reduction method (MTT) on human liver cancer cell strain MHCC97L
Description: 3. human liver cancer cell strains MHCC97L model discrimination
as §1
(1) Inoculating cells: Inoculating cells: A uniform cell suspension was prepared with culture solution containing fetal calf serum (10%). The suspension was implanted into a 96-well cell culture disc by 1000-10000 cells/200 μL per well.
as §2, §3, §4
Model principle: Dehydrogenase related to NADP exists in mitochondria of living cell. Yellow MTT is reduced to insoluble blue-purple Formanzan. Dehydrogenase is disappeared in dead cell and MTT can not be reduced. According to reduction extent, action effect of sample on tumor cell is defected.

[3] = Homo sapiens, PLC-PRF-5, read-out: PLC/PRF/5 IC50 (μM)
[4] = Homo sapiens, MHCC97L, read-out: MHCC97L IC50 (μM)
[5] = Bel-7402, 1.00 × 10^−5 mol/L, SRB, cells cultured 72 h
[6] = 1.00 × 10^−5 mol/L, SRB, cells cultured 72 h
[7] = MTT, cells cultured 3-5 days, read-out: PLC/PRF/5 IC50
[8] = MTT, cells cultured 3-5 days, read-out: MHCC97L IC50

SMILES	inhibition at 10 µM (BEL-7402 cell; Bel-7402, 72 h)	IC50 [1, 3]	IC50 [2, 4]	inhibition at 10 µM (BEL-7402 cell; [5])	BEL-7402/ Inhibition (%) (BEL-7402 cell; [6])	IC50 [1, 7]	IC50 [2, 8]
C=CC(=O)Nc1cc(OC)c2cc1C[C@H]1c3c(cc(OC)c(OC)c3Oc3cc4c(cc3OC)CCN(C)[C@H]4Cc3ccc(cc3)O2)CCN1C [Compound H-10]	87.74 ± 0.63%	10.7 µM	10.4 µM	–	–	–	–
COc1ccc2cc1Oc1ccc(cc1)C[C@H]1c3cc(c(OC)cc3CCN1C)Oc1c(O)c(OC)cc3c1[C@H](C2)N(C)CC3 [Tetrandrine B, reference compound]	23.9 ± 3.65%	16.9 µM	12.8 µM	–	–	–	–
COc1cccc2c1C(=O)c1c(O)c3c(c(O)c1C2=O)C[C@@](O)(C(=O)CO)C[C@@H]3O[C@H]1C[C@H](N)[C@H](O)[C@H](C)O1 [Doxorubicin, reference compound]	–	–	–	57.8 ± 4.05%	–	–	–
COc1cc(NS(=O)(=O)c2ccc(C)cc2)c2cc1Oc1ccc(cc1)C[C@H]1c3cc(c(OC)cc3CCN1C)Oc1c(OC)c(OC)cc3c1[C@H](C2)N(C)CC3 [Compound H-20]	–	–	–	–	93.91 ± 0.40%	11 µM	12.5 µM
COc1cc(NS(=O)(=O)c2ccc(Cl)cc2)c2cc1Oc1ccc(cc1)C[C@H]1c3cc(c(OC)cc3CCN1C)Oc1c(OC)c(OC)cc3c1[C@H](C2)N(C)CC3 [Compound H-24]	–	–	–	–	90.01 ± 2.82%	9.1 µM	8.2 µM
COc1ccc2cc1Oc1ccc(cc1)C[C@H]1c3cc(c(OC)cc3CCN1C)Oc1c(OC)c(OC)cc3c1[C@H](C2)N(C)CC3 [Tetrandrine, 6,6′,7,12-tetramethoxy-2,2′-dimethyl berbamine, reference compound]	–	–	–	53.9 ± 3.72%	–	–	–
COc1cc(NC(=O)N2CCOCC2)c2cc1Oc1ccc(cc1)C[C@H]1c3cc(c(OC)cc3CCN1C)Oc1c(OC)c(OC)cc3c1[C@H](C2)N(C)CC3 [Compound H-26]	–	–	–	–	89.60 ± 2.01%	12.2 µM	10.8 µM
COc1cc(NC(=O)c2ccco2)c2cc1Oc1ccc(cc1)C[C@H]1c3cc(c(OC)cc3CCN1C)Oc1c(OC)c(OC)cc3c1[C@H](C2)N(C)CC3 [Compound H-15]	–	–	–	–	87.23 ± 2.26%	2.5 µM	2.1 µM
COc1cc(NS(=O)(=O)c2ccc([N+](=O)[O-])cc2)c2cc1Oc1ccc(cc1)C[C@H]1c3cc(c(OC)cc3CCN1C)Oc1c(OC)c(OC)cc3c1[C@H](C2)N(C)CC3 [Compound H-19]	–	–	–	–	92.70 ± 0.55%	11.6 µM	9.4 µM
COc1cc(NC(=O)c2cccs2)c2cc1Oc1ccc(cc1)C[C@H]1c3cc(c(OC)cc3CCN1C)Oc1c(OC)c(OC)cc3c1[C@H](C2)N(C)CC3 [Compound H-16]	–	–	–	–	93.40 ± 4.70%	9 µM	11.9 µM
